Publication PMC9961948, “Interaction of Amphipathic Peptide from Influenza Virus M1 Protein with Mitochondrial Cytochrome Oxidase” (International Journal of Molecular Sciences, 2023)
Like-named read-outs stand apart in the source and are kept apart here.

Experiments:
[1] = molecular target: T1, CcO in rat liver mitochondria (Rattus norvegicus, UniProt P00406+P05503); assay: CcO activity in the mitochondrial membrane (respiration of rat liver mitochondria); assay type: biochemical
T1 construct: Rat liver mitochondria were isolated by differential centrifugation; from tissue; host or cells: rat liver mitochondria
T1 sequence (P00406 whole entry, other chains not shown): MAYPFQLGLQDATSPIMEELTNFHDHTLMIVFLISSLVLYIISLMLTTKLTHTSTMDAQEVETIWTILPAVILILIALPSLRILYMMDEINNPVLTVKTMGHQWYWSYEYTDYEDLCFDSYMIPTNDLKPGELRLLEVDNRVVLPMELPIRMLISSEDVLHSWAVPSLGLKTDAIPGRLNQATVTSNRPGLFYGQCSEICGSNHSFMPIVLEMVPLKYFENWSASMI

[2] = molecular target: T2, cytochrome c oxidase (CcO) purified from heart mitochondria (Bos taurus, UniProt P00396+P07471+P68530); assay: Cytochrome oxidase activity of solubilized mitochondrial CcO (oxygen uptake); assay type: biochemical
T2 construct: Cytochrome c oxidase was purified from the heart mitochondria of Bos taurus; from tissue; host or cells: bovine heart mitochondria

[3] = test system: CcO reconstituted into asolectin vesicles; assay: CcO activity in asolectin proteoliposomes; assay type: biochemical, Bos taurus; conditions: peptide up to 150 μM
[4] = test system: cytochrome c oxidase (CcO), peroxidase activity; assay: Peroxidase partial activity of solubilized CcO (peroxidation of ferrocyanide); assay type: biochemical, Bos taurus; conditions: 50 μM P4; 0.6 μM solubilized CcO, 0.2 mM ferrocyanide with equimolar ferricyanide, 4 mM H2O2
Description: The two-electron reduction of H2O2 to water refers to the peroxidase phase of the CcO catalytic cycle. As shown previously, this reaction can be carried out aerobically using a high-potential electron donor [51]. We followed this partial activity of CcO in the presence of a ferro/ferricyanide pair at E’ ≈ +420 mV when the oxidase reaction becomes negligible. Peroxidation of ferrocyanide by CcO was recorded spectrophotometrically (Figure 3).
Peroxidation of 0.2 mM ferrocyanide (against the background of equimolar ferricyanide) was monitored at 0.6 μM solubilized CcO. The reaction was triggered by the addition of 4 mM H2O2 (shown by the arrow). […] The initial jump upon H2O2 addition reflects spectral response in the γ-band of heme a3 upon oxoferryl intermediate formation.
Peroxidase partial activity of CcO was assayed in BM following peroxidation of ferrocyanide by the absorption difference at 420 nm vs. 500 nm references, using the spectrophotometer SLM Aminco DW-2000 (SLM Instruments, Urbana, IL, USA) in a dual-wavelength mode. In order to obtain a redox buffer with Em ≈ 420 mV, equal amounts of ferri- and ferrocyanide were mixed. No ferrocyanide oxidase activity was observed until the peroxidase reaction was initiated by the addition of H2O2. The reaction was carried out in a standard semi-micro cuvette (Hellma, Mullheim, Germany) with blackened side walls and a 10 mm light pathway.

[5] = Permeabilization of calcein-loaded asolectin liposomes (calcein release); conditions: 5 μM peptide

Ac-RTKLWEMLVELGNMDKAVKLWRKLKR-NH2 [P4]
inhibitor concentration up to which the rate of the oxidase reaction remains almost unchanged [1]: ~ 10 μM | final rate of the oxidase reaction, % of the initial ([2]; 20 μM P4 added in the course of the reaction, constant level 1.5 min later, solubilized CcO 20 nM): ≤ 15% | Ki ([2]; solubilized bovine heart CcO 20 nM, oxygen uptake, Clark electrode, 25 °C, BM 50 mM Hepes/Tris pH 7.6, 50 mM KCl, 1 mM (0.05%) DM, 5 mM ascorbate, 0.1 mM TMPD, 10 μM cytochrome c, fit by Equation (1), read-out: Inhibition of CcO, Solubilized, Ki(app)): 0.0076 mM | Ki ([2]; solubilized mitochondrial CcO, intercept of linear dependence of Ki(app) on [DM], read-out: true Ki (extrapolation of DM to zero)): 0.003 mM | oxidase reaction rate of CcO in proteoliposomes upon addition of peptide [3]: does not change the reaction rate | rate of peroxidase reaction (ferricyanide formation) upon addition of peptide [4]: did not change | time to reach the 100% level of calcein release ([5]; 100% = after Triton X-100 0.1%): 3 min | t1/2 of fluorescence increase (calcein release) ([5]; liposomes 0.1 mg lipid/mL, 20 mM MOPS/Tris pH 7.3, 0.2 mM EDTA, fluorescence 520 nm (excitation 490 nm)): ~ 12 s
